# In patent US10150728B2, “Alkylene derivatives” (Shionogi & Co., Ltd., priority 2013, dated 2018):
# Biological target: recombinant human ACC2 (Homo sapiens (Human), UniProt O00763)
# Assay: Measurement of inhibitory activity on human ACC2 (MALDI-TOF MS, acetyl CoA to malonyl CoA conversion)
# Assay type: biochemical
# Conditions: Table 154
# How it was run: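 His-tagged human ACC2 (residues 27–2458) from baculovirus-infected Sf-9 cells was preincubated 1 h in pH 7.4 HEPES-KOH buffer with MgCl2, 6-10 mM potassium citrate, glutathione and BSA. Substrate solution held 1 mM ATP, 0.8 mM acetyl CoA and 25-50 mM bicarbonate. After 1–3 h at room temperature, malonyl CoA/(malonyl+acetyl CoA) was read by negative-mode MALDI-TOF MS; citrate, bicarbonate and time varied by enzyme lot.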
# Sequence of recombinant human ACC2 (O00763 27-2458): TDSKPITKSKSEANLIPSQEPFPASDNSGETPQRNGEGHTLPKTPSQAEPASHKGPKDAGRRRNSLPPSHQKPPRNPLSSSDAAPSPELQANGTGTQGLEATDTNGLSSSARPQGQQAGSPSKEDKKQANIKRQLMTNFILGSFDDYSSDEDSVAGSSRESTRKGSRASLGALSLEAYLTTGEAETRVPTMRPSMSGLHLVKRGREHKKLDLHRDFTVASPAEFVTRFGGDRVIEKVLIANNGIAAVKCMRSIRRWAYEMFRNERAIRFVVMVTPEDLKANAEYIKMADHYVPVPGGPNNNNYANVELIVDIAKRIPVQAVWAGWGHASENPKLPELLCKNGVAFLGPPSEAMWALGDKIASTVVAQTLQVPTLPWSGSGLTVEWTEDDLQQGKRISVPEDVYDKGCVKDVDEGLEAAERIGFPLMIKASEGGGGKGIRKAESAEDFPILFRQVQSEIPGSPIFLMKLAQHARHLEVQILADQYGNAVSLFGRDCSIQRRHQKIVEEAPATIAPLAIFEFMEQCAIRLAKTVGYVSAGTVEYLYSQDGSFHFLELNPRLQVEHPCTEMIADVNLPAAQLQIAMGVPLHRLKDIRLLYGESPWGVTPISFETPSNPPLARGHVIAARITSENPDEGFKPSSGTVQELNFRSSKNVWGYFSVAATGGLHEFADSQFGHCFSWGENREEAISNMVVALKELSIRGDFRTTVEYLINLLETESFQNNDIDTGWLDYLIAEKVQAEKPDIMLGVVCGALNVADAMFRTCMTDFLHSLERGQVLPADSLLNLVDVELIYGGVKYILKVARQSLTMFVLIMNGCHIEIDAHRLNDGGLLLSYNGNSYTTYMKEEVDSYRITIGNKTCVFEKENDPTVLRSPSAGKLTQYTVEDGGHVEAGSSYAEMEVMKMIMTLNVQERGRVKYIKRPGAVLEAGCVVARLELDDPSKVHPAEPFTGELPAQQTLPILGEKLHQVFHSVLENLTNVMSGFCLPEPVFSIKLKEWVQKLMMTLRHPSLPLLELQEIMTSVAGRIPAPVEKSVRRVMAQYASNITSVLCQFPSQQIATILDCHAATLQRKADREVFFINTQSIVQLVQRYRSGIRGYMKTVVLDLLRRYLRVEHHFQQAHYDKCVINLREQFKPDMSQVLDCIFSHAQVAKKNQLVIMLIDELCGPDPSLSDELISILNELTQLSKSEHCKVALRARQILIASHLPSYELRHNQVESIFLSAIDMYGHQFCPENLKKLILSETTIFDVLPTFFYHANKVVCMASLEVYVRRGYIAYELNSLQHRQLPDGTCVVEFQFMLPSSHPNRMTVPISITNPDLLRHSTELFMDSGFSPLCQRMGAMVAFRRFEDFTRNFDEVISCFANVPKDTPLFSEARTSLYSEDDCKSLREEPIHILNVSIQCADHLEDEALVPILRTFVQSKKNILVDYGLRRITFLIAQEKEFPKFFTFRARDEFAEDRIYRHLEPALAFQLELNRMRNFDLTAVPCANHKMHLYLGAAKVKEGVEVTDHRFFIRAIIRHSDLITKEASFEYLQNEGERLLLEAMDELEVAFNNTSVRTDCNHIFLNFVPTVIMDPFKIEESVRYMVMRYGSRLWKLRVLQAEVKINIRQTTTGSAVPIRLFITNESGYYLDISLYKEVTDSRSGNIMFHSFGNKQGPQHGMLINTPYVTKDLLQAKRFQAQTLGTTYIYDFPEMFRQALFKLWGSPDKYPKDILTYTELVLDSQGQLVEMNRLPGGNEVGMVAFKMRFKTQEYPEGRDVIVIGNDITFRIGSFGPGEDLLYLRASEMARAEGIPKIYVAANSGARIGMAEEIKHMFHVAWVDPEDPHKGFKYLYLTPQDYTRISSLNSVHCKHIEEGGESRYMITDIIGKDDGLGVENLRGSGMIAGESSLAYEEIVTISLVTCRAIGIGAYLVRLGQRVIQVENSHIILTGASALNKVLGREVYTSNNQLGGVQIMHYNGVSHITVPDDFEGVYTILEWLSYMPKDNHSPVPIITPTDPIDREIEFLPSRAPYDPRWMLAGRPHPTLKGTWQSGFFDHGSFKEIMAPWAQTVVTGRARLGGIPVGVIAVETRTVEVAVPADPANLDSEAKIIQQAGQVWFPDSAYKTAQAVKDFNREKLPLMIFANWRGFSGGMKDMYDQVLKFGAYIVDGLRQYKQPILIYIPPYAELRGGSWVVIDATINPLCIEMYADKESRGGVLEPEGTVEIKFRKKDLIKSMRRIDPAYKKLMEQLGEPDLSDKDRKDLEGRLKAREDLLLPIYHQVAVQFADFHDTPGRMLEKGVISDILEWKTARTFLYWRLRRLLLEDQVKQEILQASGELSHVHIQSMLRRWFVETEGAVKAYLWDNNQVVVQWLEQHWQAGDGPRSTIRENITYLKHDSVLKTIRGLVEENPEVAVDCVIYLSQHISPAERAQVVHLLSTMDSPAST
row,SMILES,IC50 [nM]
1,CC(=O)N[C@@H](C)CO[C@H]1CC[C@H](Oc2ccc3sc(C(C)C)nc3c2Cl)CC1 [Compound I-066],1300
2,CC(=O)N[C@@H](C)[C@@H](C)Oc1cnc(Oc2ccc3nc(C(C)(F)F)sc3c2F)cn1 [Compound I-057],166
3,CC(=O)N[C@@H](C)COc1ccc(Oc2ccc3c(c2Cl)CCN(C(=O)OC(C)(C)C)C3)cn1 [Compound I-022],1250
4,CC(=O)N[C@@H](C)[C@H](C)Oc1ccc(Oc2ccc3nc(C(C)C)sc3c2Cl)cn1 [Compound I-014],759
5,CCOc1nc2ccc(OC[C@H]3C[C@H](OC[C@H](C)NC(C)=O)C3)c(F)c2s1 [Compound I-088],15
6,CCCc1ccc(Oc2ccc(OCC[C@H](C)NC(C)=O)cc2)c(Cl)c1 [Compound I-010],1010
7,CCCc1ccc(Oc2ccc(OC[C@H](C)NC(N)=O)cc2)c(Cl)c1 [Compound I-006],348
8,CC(=O)N[C@@H](C)COc1cnc(Oc2ccc(C(=O)Nc3ccc(F)cc3)c(F)c2F)cn1 [Compound I-090],45

# Same assay, conditions: Tables 155-159
row,SMILES,IC50 [nM]
1,CC(=O)N[C@@H](C)CO[C@H]1CC[C@H](Oc2nc3ccc(OCC(F)F)nc3s2)CC1 [Compound I-553],196
2,CC(=O)N[C@@H](C)CO[C@H]1C[C@H](COc2ccc3nc(OCC(F)F)sc3c2F)C1 [Compound I-151],75
3,CC(=O)N[C@@H](C)CO[C@H]1C[C@H](COc2nccc(-c3ncc(C(F)(F)F)cn3)c2C)C1 [Compound I-380],59
4,CC(=O)N[C@@H](C)CO[C@H]1C[C@H](COc2ncnc(OCc3ccccn3)c2Cl)C1 [Compound I-377],39
5,CC(=O)N[C@@H](C)CO[C@H]1C[C@H](COc2ncnc(OCc3cc(Cl)ccn3)c2F)C1 [Compound I-460],4
6,CC(=O)N[C@@H](C)CO[C@H]1CC[C@H](Oc2ccc3nc(OC4(C)CC4)sc3c2F)CC1 [Compound I-125],29
7,CC(=O)N[C@@H](C)CO[C@H]1C[C@H](COc2ccc3nc(OC4CCC4)sc3c2F)C1 [Compound I-155],25
8,CC(=O)N[C@@H](C)CO[C@H]1C[C@H](COc2nccc(OCC3(C#N)CC3)c2Cl)C1 [Compound I-371],198
9,CC(=O)N[C@@H](C)CO[C@H]1C[C@H](COc2ncnc(OCc3cc(F)ccn3)c2Cl)C1 [Compound I-360],17
10,CC(=O)N[C@@H](C)CO[C@H]1CC[C@H](Oc2nc3cc(OC(C)C)ccc3n2C)CC1 [Compound I-566],304
11,CCCOc1nc2ccc(OC[C@H]3C[C@H](OC[C@H](C)NC(C)=O)C3)nc2n1C [Compound I-483],81
12,C[C@@H](CO[C@H]1CC[C@H](Oc2nc3c(F)cc(OC4CC4)c(F)c3n2C)CC1)NC(=O)CO [Compound I-668],7
13,CC(=O)N[C@@H](C)CO[C@H]1CC[C@H](Oc2ncc(-c3ncc(F)cn3)cc2Cl)CC1 [Compound I-522],8
14,CO[C@H]1C[C@H](Oc2nc3ccc(OC[C@H]4C[C@H](OC[C@H](C)NC(C)=O)C4)nc3s2)C1 [Compound I-280],79
15,CC(=O)N[C@@H](C)CO[C@H]1C[C@H](COc2nccc(-c3ccc(F)cc3)c2F)C1 [Compound I-309],24
16,CCOc1c(F)cc2nc(O[C@H]3CC[C@H](OC[C@H](C)NC(C)=O)CC3)n(C)c2c1F [Compound I-698],3
17,CC(=O)N[C@@H](C)CO[C@H]1C[C@H](COc2ccc3nc(Oc4ccc(F)cc4)sc3n2)C1 [Compound I-305],22
18,CCOc1ccc2nc(O[C@H]3CC[C@H](OC[C@H](C)NC(C)=O)CC3)n(C)c2c1-c1ccccc1 [Compound I-661],457
19,CC(=O)N[C@@H](C)CO[C@H]1C[C@H](COc2ncnc(OCc3ncc(C)s3)c2Cl)C1 [Compound I-410],15
20,CC(=O)N[C@@H](C)CO[C@H]1CC[C@H](Oc2ccc3nc(OC(C)C)sc3n2)CC1 [Compound I-209],12
21,CC(=O)N[C@@H](C)CO[C@H]1CC[C@H](Oc2nc3ccc(OCC4CC4)cc3n2C)CC1 [Compound I-561],104

row,SMILES,IC50 [nM]
1,C[C@@H](CO[C@H]1CC[C@H](Oc2nc3c(F)cc(OCC(F)F)c(F)c3n2C)CC1)NC(=O)CO [Compound I-628],59
2,CC(=O)N[C@@H](C)CO[C@H]1C[C@H](COc2ccc3nc(OCC4(F)COC4)sc3n2)C1 [Compound I-195],28
3,CC(=O)N[C@@H](C)CO[C@H]1CC[C@H](Oc2nc3ccc(-c4ccccc4)cc3n2C)CC1 [Compound I-582],168
4,CC(=O)N[C@@H](C)CO[C@H]1CC[C@H](Oc2nc3cnc(OC(F)F)c(Cl)c3n2C)CC1 [Compound I-736],87
5,CC(=O)N[C@@H](C)CO[C@H]1C[C@H](COc2ncnc(Oc3noc4ccccc34)c2Cl)C1 [Compound I-397],31
6,CC(=O)N[C@@H](C)CO[C@H]1CC[C@H](Oc2nc3c(Cl)nc(OC4CC4)c(F)c3n2C)CC1 [Compound I-711],7
7,CC(=O)N[C@@H](C)CO[C@H]1CC[C@H](Oc2ccc3nc(N4CC(C)(O)C4)sc3c2F)CC1 [Compound I-187],234
8,CC(=O)N[C@@H](C)CO[C@H]1C[C@](F)(COc2ccc3nc(C(C)C)sc3n2)C1 [Compound I-144],127
9,CC(=O)N[C@@H](C)CO[C@H]1CC[C@H](Oc2nc3c(F)cc(OC4CC4)c(Cl)c3n2C)CC1 [Compound I-655],2
10,CC(=O)N[C@@H](C)CO[C@H]1C[C@H](Oc2nccc3c(OCc4ccccc4)nccc23)C1 [Compound I-445],14
11,CCOc1nc2ccc(O[C@H]3CC[C@H](OC[C@H](C)NC(C)=O)CC3)cc2n1C [Compound I-506],249
12,C[C@@H](CO[C@H]1CC[C@H](Oc2nc3c(F)cc(OC4CC4)c(F)c3n2C)CC1)NS(C)(=O)=O [Compound I-671],11
13,CC(=O)N[C@@H](C)CO[C@H]1C[C@H](COc2nc3sc(N4CC(F)(F)C4)nc3cc2F)C1 [Compound I-268],42
14,CC(=O)N[C@@H](C)CO[C@H]1CC[C@H](Oc2nc3c(F)c(Cl)c(OCC(F)F)c(F)c3n2C)CC1 [Compound I-733],9
15,CC(=O)N[C@@H](C)CO[C@H]1C[C@H](COc2ncnc(OCC3CC3)c2C)C1 [Compound I-421],24
16,CC(=O)N[C@@H](C)CO[C@H]1C[C@H](COc2nccc(OC3CC(F)(F)C3)c2Cl)C1 [Compound I-422],358
17,CC(=O)N[C@@H](C)CO[C@H]1C[C@H](COc2ccc3nc(OCc4ccccc4)n(C)c3n2)C1 [Compound I-480],41
18,CC(=O)N[C@@H](C)CO[C@H]1C[C@H](COc2ccc3nc(OC[C@H](C)F)sc3n2)C1 [Compound I-191],12
19,COc1ccc2nc(O[C@H]3CC[C@H](OC[C@H](C)NC(C)=O)CC3)n(C)c2c1F [Compound I-599],23
20,CC(=O)N[C@@H](C)CO[C@H]1CC[C@H](Oc2nc3c(C#N)c(F)c(OCC(F)F)c(F)c3n2C)CO1 [Compound I-703],30
21,CC(=O)N[C@@H](C)CO[C@]1(C)C[C@@H](COc2ncnc(OCc3ccc(F)cn3)c2Cl)C1 [Compound I-457],19

row,SMILES,IC50 [nM]
1,CC(=O)N[C@@H](C)CO[C@H]1C[C@H](COc2ccc3nc(OCC(F)(F)F)sc3n2)C1 [Compound I-170],6
2,CCOc1cc2c(nc(O[C@H]3CC[C@H](OC[C@H](C)NC(C)=O)CC3)n2C)c(F)n1 [Compound I-641],73
3,CC(=O)N[C@@H](C)CO[C@H]1CC[C@H](Oc2ccc3nc(OCC4(C#N)CC4)sc3c2F)CC1 [Compound I-150],36
4,CC(=O)N[C@@H](C)CO[C@H]1CC[C@H](Oc2nc3c(F)cc(OC4CCC4)c(F)c3n2C)CC1 [Compound I-639],2
5,CC(=O)N[C@@H](C)CO[C@H]1C[C@H](COc2ccc3nc(N4CC(F)C4)sc3n2)C1 [Compound I-256],39
6,CC(=O)N[C@@H](C)CO[C@H]1C[C@H](COc2ccc3nc(OC4COC4)sc3n2)C1 [Compound I-307],43
7,CC(=O)N[C@@H](C)CO[C@H]1CC[C@H](Oc2ncc(-c3ncc(C#N)cn3)cc2F)CC1 [Compound I-524],64
8,CC(=O)N[C@@H](C)CO[C@H]1C[C@H](COc2ccc3nc(OCC(F)F)sc3n2)C1 [Compound I-169],10
9,C[C@@H](CO[C@H]1CC[C@H](Oc2nc3c(F)cc(OC4CC4)c(F)c3n2C)CC1)NC(=O)C(F)F [Compound I-683],3
10,CC(=O)N[C@@H](C)CC[C@H]1OC[C@H](Oc2nc3c(F)cc(OCC(F)F)c(Cl)c3n2C)CO1 [Compound I-748],5
11,CC(=O)N[C@@H](C)CO[C@H]1CC[C@H](Oc2nc3cnc(OCC(F)F)c(Cl)c3n2C)CC1 [Compound I-722],9
12,CC(=O)N[C@@H](C)CO[C@H]1CC[C@H](Oc2ncc3nc(N4CC(F)(F)C4)sc3c2F)CC1 [Compound I-241],173
13,CC(=O)N[C@@H](C)CO[C@H]1CC[C@H](Oc2nc3ccc(OCc4ccccc4)c(F)c3n2C)CC1 [Compound I-600],13
14,CC(=O)N[C@@H](C)CO[C@H]1C[C@](F)(COc2ccc3nc(C(C)(C)O)sc3c2F)C1 [Compound I-160],809
15,CC(=O)N[C@@H](C)CO[C@H]1C[C@H](COc2cc3sc(C(C)(C)O)nc3cc2F)C1 [Compound I-159],641
16,CC(=O)N[C@@H](C)CO[C@H]1C[C@H](COc2c(Cl)cc3nc(C(C)C)sc3c2Cl)C1 [Compound I-141],80
17,CC(=O)N[C@@H](C)CO[C@H]1C[C@H](COc2ncnc(OCc3ccccc3F)c2Cl)C1 [Compound I-388],14
18,CCOc1nc2ccc(OC[C@H]3C[C@H](OC[C@H](C)NC(C)=O)C3)nc2s1 [Compound I-157],3
19,CC(=O)N[C@@H](C)CO[C@H]1C[C@H](COc2ncnc(OCc3cc(Cl)ccn3)c2Cl)C1 [Compound I-385],4
20,CC(=O)N[C@@H](C)CO[C@H]1C[C@H](COc2ncnc3c2ccn3CC2CC2)C1 [Compound I-359],21
